Consider 2 molecules from ChEMBL document CHEMBL1156463, “Survivin down-regulation plays a crucial role in 3-hydroxy-3-methylglutaryl coenzyme A reductase inhibitor-induced apoptosis in cancer” (J Biol Chem, 2007).

Activity calls are given as the source filed them. The calls are words filed in the database; no cut-off is given here.

In assay [1] the test system is SW480. Nature of the assay: Decrease in survivin expression in human SW480 cells at 20 uM after 24 hrs by immunoblot analysis. It counts as functional, cell-based. A general note: Immunoblotting shows a protein as a band on a membrane.
In assay [2] the test system is SW480. The assay can be described thus: Growth inhibition of human SW480 cells after 96 hrs by MTS assay. In kind it is functional, cell-based. Particulars: SW480, 96 h. A general note: Tetrazolium dyes change colour on reduction, which living cells bring about.
Assay [3] is described as follows: Growth inhibition of human LS180 cells after 96 hrs by MTS assay. It counts as functional, cell-based. As to conditions: LS180, 96 h.
The test system of assay [4] is HT-29. The assay can be described thus: Growth inhibition of human HT29 cells after 96 hrs by MTS assay. In kind it is functional, cell-based. Particulars: HT-29, 96 h.
Assay [5] relates to SW480. Nature of the assay: Reversal of growth inhibition of human SW480 cells at 20 uM after 48 hrs by MTS assay in presence of >50 uM mevalonate. In kind it is functional, cell-based.
In assay [6] the test system is SW480. The assay can be described thus: Induction of cell cycle arrest in human SW480 cells by accumulation at G0/G1 phase at 20 uM after 48 hrs by flow cytometry. It counts as functional, cell-based. In general terms: In flow cytometry, cells or beads pass a laser one at a time.
The subject of assay [7] is SW480. The assay can be described thus: Induction of cell cycle arrest in human SW480 cells by accumulation at S phase at 20 uM after 48 hrs by flow cytometry. It counts as functional, cell-based.
The subject of assay [8] is SW480. The assay can be described thus: Induction of cell cycle arrest in human SW480 cells by accumulation at G2/M phase at 20 uM after 48 hrs by flow cytometry. In kind it is functional, cell-based.
Assay [9] has as its system SW480. Nature of the assay: Induction of apoptosis in human SW480 cells assessed as increase in hypodiploid DNA content at 20 uM after 48 hrs by flow cytometry relative to control. In kind it is functional.
Assay [10] relates to SW480. The assay can be described thus: Induction of apoptosis in human SW480 cells at 20 uM after 48 hrs by annexin-V propidium iodide staining method. It counts as functional.
For assay [11], the system named is SW480. The assay can be described thus: Decrease in survivin expression in human SW480 cells at 20 uM after 48 hrs by immunoblot analysis. In kind it is functional, cell-based.
Assay [12] has as its system SW480. Nature of the assay: Reversal of reduction in survivin expression in human SW480 cells at 20 uM after 48 hrs by immunoblot analysis in presence of 100 uM mevalonate. In kind it is functional, cell-based.
Assay [13] concerns SW480. Nature of the assay: Effect on Bax expression in human SW480 cells. In kind it is functional, cell-based.
Assay [14] concerns SW480. The assay can be described thus: Decrease in survivin mRNA expression in human SW480 cells at 20 uM after 48 hrs by RT-PCR technique. In kind it is functional.
For assay [15], the system named is SW480. Nature of the assay: Reversal of reduction in survivin mRNA expression in human SW480 cells at 20 uM after 48 hrs by RT-PCR technique in presence of 100 uM mevalonate. In kind it is functional, cell-based.
Assay [16] relates to LS180. The assay can be described thus: Inhibition of survivin expression in parent human LS180 cells at 20 uM by immunoblot analysis. It counts as functional, cell-based.
Assay [17] concerns LS180. Nature of the assay: Inhibition of survivin expression in survivin gene transfected human LS180 cells at 20 uM immunoblot analysis. In kind it is functional, cell-based.
The subject of assay [18] is LS180. Nature of the assay: Blockade of growth inhibition of survivin gene transfected human LS180 cells after 72 hrs by MTS method. In kind it is functional, cell-based.
For assay [19], the system named is LS180. The assay can be described thus: Blockade of growth inhibition of human LS180 cells after 72 hrs by MTS method. It counts as functional, cell-based.
Assay [20] deals with SW480. The assay can be described thus: Reversal of growth inhibition of human SW480 cells at 20 uM after 48 hrs by […] in presence of farnesyl pyrophosphate. In kind it is functional, cell-based.
Assay [21] deals with SW480. Nature of the assay: Reversal of growth inhibition of human SW480 cells at 20 uM after 48 hrs by […] in presence of geranylgeranyl pyrophosphate. It counts as functional, cell-based.
For assay [22], the system named is SW480. Nature of the assay: Reversal of growth inhibition of human SW480 cells at 20 uM after 48 hrs by […] in presence of squalene. In kind it is functional, cell-based.
Assay [23] concerns SW480. Nature of the assay: Decrease in isoprenylated Ras level in human SW480 cells at 20 uM after 48 hrs by immunoblot analysis. In kind it is functional, cell-based.
The subject of assay [24] is SW480. Nature of the assay: Reversal of decrease in isoprenylated Ras level in human SW480 cells at 20 uM after 48 hrs by immunoblot analysis in presence of mevalonate. In kind it is functional, cell-based.
Assay [25] concerns SW480. The assay can be described thus: Reversal of decrease in isoprenylated Ras level in human SW480 cells at 20 uM after 48 hrs by immunoblot analysis in presence of farnesyl pyrophosphate. In kind it is functional, cell-based.
Assay [26] deals with SW480. The assay can be described thus: Reversal of decrease in isoprenylated Ras level in human SW480 cells at 20 uM after 48 hrs by immunoblot analysis in presence of geranylgeranyl pyrophosphate. It counts as functional, cell-based.
Assay [27] relates to SW480. Nature of the assay: Reversal of decrease in isoprenylated Ras level in human SW480 cells at 20 uM after 48 hrs by immunoblot analysis in presence of squalene. It counts as functional, cell-based.
The test system of assay [28] is SW480. Nature of the assay: Inhibition of FBS-stimulated increase in Ras protein expression in human SW480 cells assessed as GTP-bound protein at 20 uM by immunoblot analysis. It counts as functional, cell-based.
Assay [29] relates to SW480. Nature of the assay: Reversal of inhibition of FBS-stimulated increase in Ras protein expression in human SW480 cells assessed as GTP-bound protein at 20 uM by immunoblot analysis. In kind it is functional, cell-based.
Assay [30] deals with RAC-alpha serine/threonine-protein kinase (Homo sapiens) (UniProt P31749). Nature of the assay: Inhibition of FBS-stimulated increase in Akt phosphorylation in human SW480 cells at 20 uM by immunoblot analysis. It counts as cell-based.
Chain of RAC-alpha serine/threonine-protein kinase (Homo sapiens) (P31749 whole entry): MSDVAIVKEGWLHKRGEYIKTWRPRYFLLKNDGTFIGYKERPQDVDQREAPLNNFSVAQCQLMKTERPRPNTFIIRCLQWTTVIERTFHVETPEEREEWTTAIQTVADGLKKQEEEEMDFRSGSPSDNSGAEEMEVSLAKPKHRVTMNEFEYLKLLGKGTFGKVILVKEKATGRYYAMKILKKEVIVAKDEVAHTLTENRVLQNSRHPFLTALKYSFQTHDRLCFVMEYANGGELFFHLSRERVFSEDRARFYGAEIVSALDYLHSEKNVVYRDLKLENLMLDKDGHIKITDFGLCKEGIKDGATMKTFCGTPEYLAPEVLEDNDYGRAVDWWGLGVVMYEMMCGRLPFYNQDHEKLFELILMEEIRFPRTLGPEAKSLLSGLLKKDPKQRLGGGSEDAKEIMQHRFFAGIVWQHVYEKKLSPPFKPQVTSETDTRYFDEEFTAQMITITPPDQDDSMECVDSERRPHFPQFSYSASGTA

Turning to `O=c1cc(N2CCOCC2)oc2c(-c3ccccc3)cccc12`, the outcome in [1] was Active.

Regarding `CC[C@H](C)C(=O)O[C@H]1C[C@@H](C)C=C2C=C[C@H](C)[C@H](CC[C@@H]3C[C@@H](O)CC(=O)O3)[C@H]21` [LOVASTATIN], the values for the IC50 in assay [2], in assay [3] and in assay [4] were 7.1 µM, 25.3 µM and 46.8 µM, respectively. For the same molecule, the result in assay [5], in [11], in assay [12], in assay [15], in [16] and in assay [17] was Active. Further, the outcome in assay [19], in assay [20], in assay [21], in [23], in [24] and in assay [25] was Active. Besides, the result in assay [26], in assay [28], in assay [29] and in assay [30] was Active. The outcome in assay [6], in assay [7], in [8], in assay [13], in [22] and in [27] was inactive. The Activity was 20.7% in assay [9], 24.2% in [10], 60% in [14] and “Dose-dependent effect” in [18].

What is called IC50 is the point on the concentration scale where inhibition reaches its midpoint. Read a high IC50 as a need for much substance.
